Test [1] concerns the target T1, recombinant guanylate cyclase reporter cell line (Rattus norvegicus, UniProt P19686+P20595).
T1 construct: expressed in transfected cells
T1 sequence (P20595 1-619): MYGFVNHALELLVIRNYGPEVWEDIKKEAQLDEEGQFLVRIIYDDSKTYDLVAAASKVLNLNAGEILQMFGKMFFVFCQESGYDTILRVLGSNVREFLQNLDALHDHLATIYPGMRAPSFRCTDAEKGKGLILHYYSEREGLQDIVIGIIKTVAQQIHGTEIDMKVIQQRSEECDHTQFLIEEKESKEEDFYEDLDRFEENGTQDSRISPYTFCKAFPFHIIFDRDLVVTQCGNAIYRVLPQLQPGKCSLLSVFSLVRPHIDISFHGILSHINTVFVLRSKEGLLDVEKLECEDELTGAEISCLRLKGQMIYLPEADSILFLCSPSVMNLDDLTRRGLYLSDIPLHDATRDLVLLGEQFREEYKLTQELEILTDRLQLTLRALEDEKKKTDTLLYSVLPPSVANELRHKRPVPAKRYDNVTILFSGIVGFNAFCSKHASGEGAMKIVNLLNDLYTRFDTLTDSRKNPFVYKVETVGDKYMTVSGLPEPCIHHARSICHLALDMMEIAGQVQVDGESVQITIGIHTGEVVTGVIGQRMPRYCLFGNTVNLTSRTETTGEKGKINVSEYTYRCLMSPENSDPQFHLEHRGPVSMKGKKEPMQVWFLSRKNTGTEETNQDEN
T1 sequence (P19686 1-690): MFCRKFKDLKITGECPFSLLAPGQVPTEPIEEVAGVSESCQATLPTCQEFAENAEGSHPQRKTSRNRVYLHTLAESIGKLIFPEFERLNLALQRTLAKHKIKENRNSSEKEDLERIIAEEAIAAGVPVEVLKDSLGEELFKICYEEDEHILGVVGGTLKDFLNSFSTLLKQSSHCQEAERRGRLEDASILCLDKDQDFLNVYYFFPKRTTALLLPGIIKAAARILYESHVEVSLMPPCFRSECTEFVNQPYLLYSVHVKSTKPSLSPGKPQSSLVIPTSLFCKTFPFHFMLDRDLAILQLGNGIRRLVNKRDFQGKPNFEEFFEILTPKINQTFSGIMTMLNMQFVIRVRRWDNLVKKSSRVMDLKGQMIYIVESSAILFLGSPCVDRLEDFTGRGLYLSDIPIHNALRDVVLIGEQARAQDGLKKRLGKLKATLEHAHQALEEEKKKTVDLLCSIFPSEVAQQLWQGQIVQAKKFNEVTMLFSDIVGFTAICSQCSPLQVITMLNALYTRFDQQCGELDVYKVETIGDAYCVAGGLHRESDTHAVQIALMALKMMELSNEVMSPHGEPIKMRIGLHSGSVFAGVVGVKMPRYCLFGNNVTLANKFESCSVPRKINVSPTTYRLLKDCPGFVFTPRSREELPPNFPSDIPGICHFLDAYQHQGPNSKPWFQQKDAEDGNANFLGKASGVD
Briefly: Action on recombinant guanylate cyclase reporter cell line. It is filed as cell-based. As to the method: B-2. Action on Recombinant Guanylate Cyclase Reporter Cell Line
The cellular action of the compounds according to the invention is determined on a recombinant guanylate cyclase reporter cell line, as described in F. Wunder et al., Anal. Biochem. 339, 104-112 (2005).

Another test relates to aorta rings. Nature of the test: Vessel-relaxing action in vitro (aorta rings, phenylephrine contraction). To be noted: concentration required to reduce phenylephrine-induced contraction of rabbit aorta rings by 50%. As to the method: B-1. Vessel-relaxing Action in vitro
Rabbits are stunned with a blow on the back of the neck and exsanguinated. The aorta is removed, freed from adhering tissue, separated into rings with a width of 1.5 mm, and placed individually, with preloading, in 5-ml organ baths with carbogen-gassed Krebs-Henseleit solution at 37° C. with the following composition (mM in each case): sodium chloride: 119; potassium chloride: 4.8; calcium chloride dihydrate: 1; magnesium sulphate heptahydrate: 1.4; potassium dihydrogen phosphate: 1.2; sodium hydrogen carbonate: 25; glucose: 10. The contraction force is recorded with Statham UC2 cells, amplified and digitized via an A/D converter (DAS-1802 HC, Keithley Instruments Munich) and recorded in parallel on a continuous-line recorder. To produce contraction, phenylephrine is added to the bath cumulatively in increasing concentration. After several control cycles, the test substance is added in increasing dosage in each subsequent pass and the level of contraction is compared with the level of contraction reached in the immediately preceding pass. This is used for calculating the concentration that is required to reduce the level of the control value by 50% (IC50 value). The standard application volume is 5 μl, and the proportion of DMSO in the bath solution corresponds to 0.1%.

Test [2] concerns the target T2, human phosphodiesterase 5 (PDE-5) (Homo sapiens, UniProt O76074).
T2 construct: PDE-5 preparations are obtained from human platelets by lysis; from tissue; host or cells: human platelets
Nature of the test: Inhibition of human phosphodiesterase 5 (PDE-5), SPA assay. It is filed as biochemical. To be noted: PDE-5 preparation from human platelets, [8-3H]cGMP substrate. In short, it runs like this: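 Scintillation proximity read-out with yttrium beads after 60 min room-temperature hydrolysis of 0.025 μCi [8-3H]cGMP, pH 7.5 Tris/MgCl2/EDTA buffer. Enzyme is a human platelet PDE-5 fraction, diluted to keep substrate turnover below 70%. Test concentrations 4 μM–0.0018 μM final; IC50 from inhibition curves.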

One may read the IC50 as the concentration needed to halve the response being measured. Low values mean greater potency in that assay, high ones weaker potency in that assay. `CC1(C)C(=O)Nc2nc(-c3nn(Cc4ccccc4F)c4ncccc34)nc(N3CCC(N)C3)c21` (racemic) [Example 106, 4-(3-Aminopyrrolidin-1-yl)-2-[1-(2-fluorobenzyl)-1H-pyrazolo[3,4-b]pyridin-3-yl]-5,5-dimethyl-5,7-dihydro-6H-pyrrolo[2,3-d]pyrimidin-6-one]: the “MEC (minimal effective concentration)” value in test [1] is reported as 1 μm. Besides, the 50% inhibitory concentration (IC50) came to 1.45 µM in the test on aorta rings (Oryctolagus cuniculus) and 0.012 µM in test [2].

For `CC1(C)C(=O)Nc2nc(-c3nn(Cc4ccccc4F)c4ncc(F)cc34)nc(NCC(O)C(F)(F)F)c21` (single isomer, unassigned) [Example 96-1, 2-[5-Fluoro-1-(2-fluorobenzyl)-1H-pyrazolo[3,4-b]pyridin-3-yl]-5,5-dimethyl-4-[(3,3,3-trifluoro-2-hydroxypropyl)amino]-5,7-dihydro-6H-pyrrolo[2,3-d]pyrimidin-6-one], the “MEC (minimal effective concentration)” value in test [1] is on record as 0.1 μm. Further, the IC50 with aorta rings was found to be 1.47 µM; in test [2] it was 0.15 µM.

`CC1(C)C(=O)Nc2nc(-c3nn(Cc4ccccc4F)c4ncc(F)cc34)nc(NCC(O)C(F)(F)F)c21` (single isomer, unassigned) [Example 96-2, 2-[5-Fluoro-1-(2-fluorobenzyl)-1H-pyrazolo[3,4-b]pyridin-3-yl]-5,5-dimethyl-4-[(3,3,3-trifluoro-2-hydroxypropyl)amino]-5,7-dihydro-6H-pyrrolo[2,3-d]pyrimidin-6-one]: the “MEC (minimal effective concentration)” value in test [1] came to 0.01 μm. In addition, the IC50 came to 0.601 µM with aorta rings and 0.026 µM in test [2].

For `COc1nc(-c2nn(Cc3ccccc3F)c3ncccc23)nc2c1C(C)(C)C(=O)N2` [Example 1, 2-[1-(2-Fluorobenzyl)-1H-pyrazolo[3,4-b]pyridin-3-yl]-4-methoxy-5,5-dimethyl-5,7-dihydro-6H-pyrrolo[2,3-d]pyrimidin-6-one], the “MEC (minimal effective concentration)” value in test [1] came to 0.1 μm. In addition, the 50% inhibitory concentration (IC50) in the test with aorta rings (Oryctolagus cuniculus) is 0.114 µM; in test [2] it was 0.14 µM.

As for `CC1(C)C(=O)Nc2nc(-c3nn(Cc4ccccc4F)c4ncc(F)cc34)nc(NCCO)c21` [Example 2, 2-[5-Fluoro-1-(2-fluorobenzyl)-1H-pyrazolo[3,4-b]pyridin-3-yl]-4-[(2-hydroxyethyl)amino]-5,5-dimethyl-5,7-dihydro-6H-pyrrolo[2,3-d]pyrimidin-6-one], the “MEC (minimal effective concentration)” value in test [1] was 0.3 μm. Also, the IC50 with aorta rings (Oryctolagus cuniculus) turned out to be 0.054 µM; in test [2], 0.008 µM.

Turning to `CC(C)(N)CNc1nc(-c2nn(Cc3ccccc3F)c3ncc(F)cc23)nc2c1C(C)(C)C(=O)N2` [Example 3, 4-[(2-Amino-2-methylpropyl)amino]-2-[5-fluoro-1-(2-fluorobenzyl)-1H-pyrazolo[3,4-b]pyridin-3-yl]-5,5-dimethyl-5,7-dihydro-6H-pyrrolo[2,3-d]pyrimidin-6-one], the “MEC (minimal effective concentration)” value in test [1] is 3.0 μm. In addition, the 50% inhibitory concentration (IC50) in the test on aorta rings (Oryctolagus cuniculus) is 0.469 µM; in test [2], 0.046 µM.

In the case of `CC1(C)C(=O)Nc2nc(-c3nn(Cc4ccccc4F)c4ncc(F)cc34)nc(NCC(N)C(F)(F)F)c21` (stereo not shown) [Example 6, 4-[(2-Amino-3,3,3-trifluoropropyl)amino]-2-[5-fluoro-1-(2-fluorobenzyl)-1H-pyrazolo[3,4-b]pyridin-3-yl]-5,5-dimethyl-5,7-dihydro-6H-pyrrolo[2,3-d]pyrimidin-6-one], the results for the concentration for half-maximal inhibition (IC50) (in the test with aorta rings (Oryctolagus cuniculus); in test [2]) were 0.68 µM and 0.12 µM, respectively.

For `CC1(C)C(=O)Nc2nc(-c3nn(Cc4ccccc4F)c4ncccc34)nc(NCc3ccccc3)c21` [Example 83, 4-(benzylamino)-2-[1-(2-fluorobenzyl)-1H-pyrazolo[3,4-b]pyridin-3-yl]-5,5-dimethyl-5,7-dihydro-6H-pyrrolo[2,3-d]pyrimidin-6-one], the “MEC (minimal effective concentration)” value in test [1] was found to be 0.03 μm. Further, half-maximal inhibition in test [2] (IC50) was put at 0.23 µM.

As to `CC1(C)C(=O)Nc2nc(-c3nn(Cc4ccccc4F)c4ncccc34)nc(NCc3cccnc3)c21` [Example 84, 2-[1-(2-fluorobenzyl)-1H-pyrazolo[3,4-b]pyridin-3-yl]-5,5-dimethyl-4-[(pyridin-3-ylmethyl)amino]-5,7-dihydro-6H-pyrrolo[2,3-d]pyrimidin-6-one], the “MEC (minimal effective concentration)” value in test [1] stood at 0.1 μm. For the same molecule, half-maximal inhibition in test [2] (IC50) required 0.019 µM.

As for `CC1(C)C(=O)Nc2nc(-c3nn(Cc4ccccc4F)c4ncccc34)nc(NCc3ccncc3)c21` [Example 85, 2-[1-(2-fluorobenzyl)-1H-pyrazolo[3,4-b]pyridin-3-yl]-5,5-dimethyl-4-[(pyridin-4-ylmethyl)amino]-5,7-dihydro-6H-pyrrolo[2,3-d]pyrimidin-6-one], the “MEC (minimal effective concentration)” value in test [1] turned out to be 0.3 μm. Also, half-maximal inhibition in test [2] (IC50) was put at 0.0042 µM.

With `CC1(C)C(=O)Nc2nc(-c3nn(Cc4ccccc4F)c4ncccc34)nc(NC[C@H]3CCCO3)c21` [Example 86, 2-[1-(2-fluorobenzyl)-1H-pyrazolo[3,4-b]pyridin-3-yl]-5,5-dimethyl-4-[(tetrahydrofuran-2-ylmethyl)amino]-5,7-dihydro-6H-pyrrolo[2,3-d]pyrimidin-6-one], in test [1], the “MEC (minimal effective concentration)” value stood at 0.01 μm. In addition, the midpoint of inhibition in test [2], the IC50, lay at 0.33 µM.

Turning to `CC1(C)C(=O)Nc2nc(-c3nn(Cc4ccccc4F)c4ncccc34)nc(Nc3ccccc3)c21` [Example 87, 2-[1-(2-fluorobenzyl)-1H-pyrazolo[3,4-b]pyridin-3-yl]-5,5-dimethyl-4-(phenylamino)-5,7-dihydro-6H-pyrrolo[2,3-d]pyrimidin-6-one], in test [1], the “MEC (minimal effective concentration)” value was 0.03 μm. For the same molecule, in test [2], the IC50 is 0.21 µM.

For the molecule `CC1(C)C(=O)Nc2nc(-c3nn(Cc4cccc(F)c4F)c4ncc(F)cc34)nc(OCCC(F)(F)F)c21` [Example 110, 2-[1-(2,3-Difluorobenzyl)-5-fluoro-1H-pyrazolo[3,4-b]pyridin-3-yl]-5,5-dimethyl-4-(3,3,3-trifluoropropoxy)-5,7-dihydro-6H-pyrrolo[2,3-d]pyrimidin-6-one], the figures for the IC50 (in the test with aorta rings (Oryctolagus cuniculus); in test [2]) were 10 µM and 0.84 µM, respectively.

Take `CC1(C)C(=O)Nc2nc(-c3nn(Cc4cccc(F)c4F)c4ncc(F)cc34)nc(O)c21` [Example 116, 2-[1-(2,3-Difluorobenzyl)-5-fluoro-1H-pyrazolo[3,4-b]pyridin-3-yl]-4-hydroxy-5,5-dimethyl-5,7-dihydro-6H-pyrrolo[2,3-d]pyrimidin-6-one]: the “MEC (minimal effective concentration)” value in test [1] is 0.03 μm. Besides, in test [2], inhibition was half-maximal at 0.083 µM (IC50).
